From patent publication US7855232B2, “Organoselenium compound for cancer chemoprevention” (LKT Laboratories, Inc., priority 2001, dated 2010)
Marks after values point to notes of the source that are not given here.

Assays:
[1] = system: Glutathione S-Transferase; test: Glutathione S-transferase (GST) activity in tissue cytosol of treated mice, CDNB substrate; assay type: in vivo, Female A/J mice; settings: for Ratio Test/con (GST): gavage; for GST act.: gavage in corn oil
[2] = system: UDP-Glucuronosyltransferase (UDP-GT); test: UDP-glucuronosyltransferase (UDP-GT) activity in liver microsomes of treated mice, o-aminophenol substrate; assay type: in vivo, Female A/J mice; settings: for Ratio Test/con (UDP-GT): gavage; for UDP-GT activity (column head prints GSH conc.): gavage in corn oil
aberrant crypts (AC) = test: Inhibition of DMH-induced aberrant crypt (AC) formation in colon; assay type: in vivo, Female CF1 mice; settings: with DMH
Description: Precancerous lesions called aberrant crypts (AC) are used as a marker for colon carcinogenesis. Mice and rats, when exposed to colon-specific carcinogen, develop preneoplastic changes in colon crypts which leads to malignancy through dysplasia-carcinoma sequence. […] McLellan et al., Cancer Res. 48:6183-6186 (1988); McLellan et al., Cancer Res. 48:2311-2315 (1988).
The effect of colon-specific carcinogenesis is typically seen in the induction of AC formation in less than two weeks. AC formation is dose dependent and can be quantitated without elaborate instrumentation. In view of the short time-frame required to get quantifiable results, this bio-assay is a useful prescreening tool for the evaluation of chemopreventative efficacy of compounds that are effective against colon cancer. The protocol for aberrant crypts is shown below:
Female CF1 mice, 3 weeks of age, were purchased from Harlan Sprague-Dawley, Indianapolis, 1N. They were housed, 5 mice per cage, in temperature and humidity-controlled animal quarters with 12 hours light/dark cycle and fed AIN 76A semipurified diet until the ent of the experiment. Water was given ad libitim. The animals were separated into experimental and control groups. The test compounds 0.03-0.04 mmol/kg body weight dissolved in 0.3 mL corn oil, were given by gavage one per day for 8 days. One hour after the inhibitors administration on the 4th and 8th days, 0.4 mg of DMH in 0.2 mL of 0.001 M EDTA, adjusted to pH 6.5 with sodium bicarbonate, was given by gavage. Starting on the 9th day, the inhibitors were given once every other day for an additional 3 weeks. This regimen of inhibitor administration ensures the coverage both the initiation and post initiation periods of carcinogen exposure.
At the end of the 3 week period, the animals were sacrificed and the colons removed. The starting and terminating weights of the animals were recorded. The procedures for the determination of aberrant crypts were those reported by Bird (Cancer Letters 37:147-151 (1987)). The mouse colon including the caecum was removed, rinsed with PBS, and opened longitudinally. The colon contents was removed by washing with PBS. The colon was spread mucosal side up on a piece of filter paper and fixed in buffered formalin overnight. It was then stained with 0.2% methylene blue in PBS for 60 min. The AC foci was read under light microscope. The AC are topographically distinguished by their increased size, increased pericryptal zone, and thicker and deeply stained epithelial lining compared to normal crypts. The number of foci and AC in the colorectal and caecal parts of the colon were recorded separately. The significance of the data was determined by the analysis of variance method. The significance of the incidence of aberrant crypts bearing animals was analyzed by the X^2 test. The aberrant crypts were examined histologically to verify the dysplastic nature of the changes in animals treated with carcinogens and those treated with carcinogens and inhibitors.

[3] = colon, dose 0.02 mmol/Kg body weight
[4] = colon, dose 0.04 mmol/Kg body weight
[5] = forestomach, dose 0.02 mmol/Kg body weight
[6] = forestomach, dose 0.04 mmol/Kg body weight
[7] = liver, dose 0.02 mmol/Kg body weight
[8] = liver, dose 0.04 mmol/Kg body weight
[9] = lung, dose 0.02 mmol/Kg body weight
[10] = lung, dose 0.04 mmol/Kg body weight
[11] = small intestinal mucosa, dose 0.02 mmol/Kg body weight
[12] = small intestinal mucosa, dose 0.04 mmol/Kg body weight

## N#C[Se]Cc1ccc(C[Se]C#N)s1 [(2) TDMSC, thienyl-2,5-di-methylene selenocyanate]
[1]; [3]
  Ratio Test/con (GST): 1.00
  GST act.: 0.40 ± 0.04 μmol/min mg protein
[1]; [4]
  Ratio Test/con (GST): 1.00
  GST act.: 0.40 ± 0.01 μmol/min mg protein
[1]; [5]
  Ratio Test/con (GST): 1.15
  GST act.: 0.90 ± 0.12 μmol/min mg protein
[1]; [6]
  Ratio Test/con (GST): 1.15
  GST act.: 0.90 ± 0.11 ^g μmol/min mg protein
[1]; [7]
  Ratio Test/con (GST): 1.27
  GST act.: 1.43 ± 0.2 ^g μmol/min mg protein
[1]; [8]
  Ratio Test/con (GST): 1.12
  GST act.: 1.26 ± 0.21 μmol/min mg protein
[1]; [9]
  Ratio Test/con (GST): 1.04
  GST act.: 0.49 ± 0.07 μmol/min mg protein
[1]; [10]
  Ratio Test/con (GST): 1.15
  GST act.: 0.54 ± 0.09 μmol/min mg protein
[1]; [11]
  Ratio Test/con (GST): 1.03
  GST act.: 0.35 ± 0.01 μmol/min mg protein
[1]; [12]
  Ratio Test/con (GST): 1.18
  GST act.: 0.40 ± 0.16 μmol/min mg protein
[2]; dose 0.02 mmol/Kg body weight
  Ratio Test/con (UDP-GT): 1.58
  UDP-GT activity (column head prints GSH conc.): 7.00 ± 1.07 ^c nmol/min/mg protein
[2]; dose 0.04 mmol/Kg body weight
  Ratio Test/con (UDP-GT): 2.81
  UDP-GT activity (column head prints GSH conc.): 12.44 ± 2.31 ^c nmol/min/mg protein
[2]; dose 0.04 mmol/Kg body weight, listed as TDMSC 2
  Ratio Test/con (UDP-GT): 3.0
Aberrant crypts (AC); low dose 0.03 mmol/kg body weight, gavage, DMH alone 1.13
  ACF/Colon: 0.50
Aberrant crypts (AC); low dose 0.03 mmol/kg body weight, gavage, DMH alone 1.28
  AC/Foci: 1.00
Aberrant crypts (AC); low dose 0.03 mmol/kg body weight, gavage, DMH alone 1.44
  AC/Colon: 0.50
Aberrant crypts (AC); low dose 0.03 mmol/kg body weight, gavage, DMH alone 18
  Total ACF: 4
Aberrant crypts (AC); low dose 0.03 mmol/kg body weight, gavage, DMH alone 23
  Total AC: 4
Aberrant crypts (AC); low dose 0.03 mmol/kg body weight, gavage, DMH alone 43.7
  % animals: 24.0%
Aberrant crypts (AC); low dose
  protection (inhibition of aberrant crypt formation): more than 50%
